Test results published in US9598365B2, “Method for synthesizing cycloalkanyl[b]indoles, cycloalkanyl[b]benzofurans, cycloalkanyl[b]benzothiophenes, compounds and methods of use” (Trustees of Dartmouth College, priority 2012, dated 2017).
Where “and” joins values, the source holds several entries; their conditions need not be identical. Equal values may be shown once.

Experiments:
Type in all cases: cell-based
hNCI-H716 [1] = experiment: hNCI-H716 GLP-1 secretion; conditions: GLP-1 secretion; for Primary SP hNCI (% Stim.) / activation at 2 µM / activation at 20 µM: single point; for activation at 2 µM / activation at 20 µM: read-out: Primary SP hNCI (% Stim.); for EC50: concentration response curve, read-out: Primary CRC (EC50, μM) hNCI
Text: Selected compounds of this invention were screened for K-Ras Wnt synthetic lethal, anti-angiogenic activity, Wnt pathway modulatory activity, insulin and GLP-1 secretion modulatory activity, GPR119 receptor agonist activity, mGlu2R antagonist activity, CGRP receptor antagonist activity, Apelin receptor agonist activity and hexokinase 2 inhibitory activity using the PD^2 and TD^2 Screening Panel (Eli Lilly & Company). See Lee, et al. (2011) J. Biomol. Screen. 16:588-602.
(§1) In light of the above results, additional compounds (Table 7) were prepared and phenotypic assays were carried out using hNCI-H716 and mSTC-1 cell lines to monitor GLP-1 secretion (single point (SP) and concentration response curves (CRC)) (Table 8), as well as a secondary assay with pituitary cells (Table 9).

mSTC-1 [2] = experiment: mSTC-1 GLP-1 secretion; conditions: for EC50: concentration response curve, read-out: Primary CRC (EC50, μM) mSTC; for activation at 2 µM / activation at 20 µM: single point, read-out: Primary SP mSTC (% Stim.)
Method: as §1

mSTC-1 [3] = experiment: mSTC LDH secretion; conditions: read-out: Primary CRC (EC50, μM) mSTC LDH
Method: as §1

hNCI-H716 [4] = experiment: hNCI basal LDH secretion; conditions: read-out: Primary CRC (EC50, μM) hNCI Basal
Method: as §1

SMILES	activation at 2 µM (hNCI-H716 [1]; 2 μM)	activation at 20 µM (hNCI-H716 [1]; 20 μM)	activation at 2 µM (mSTC-1 [2])	activation at 20 µM (mSTC-1 [2])	also measured
COc1ccc([C@@H]2c3c(n(C)c4ccccc34)[C@H]3C=C[C@@H]2C3)cc1 (racemic) [Compound 11b]					Primary SP hNCI (% Stim.) (hNCI-H716 [1]; 2 μM): −0.5%; Primary SP hNCI (% Stim.) (hNCI-H716 [1]; 20 μM): −2.4%
Cn1c2c(c3ccccc31)[C@@H](c1ccc(C(F)(F)F)cc1)[C@@H]1C=C[C@H]2C1 (racemic) [Compound 11c]					Primary SP hNCI (% Stim.) (hNCI-H716 [1]; 2 μM): 1%; Primary SP hNCI (% Stim.) (hNCI-H716 [1]; 20 μM): 0.7%
Cn1c2c(c3ccccc31)[C@@H](c1ccccc1)[C@@H]1C=C[C@H]2C1 [Compound 11a]	-2.8%	-0.5%			
Cn1c2c(c3ccccc31)[C@@H](c1ccco1)[C@@H]1C=C[C@H]2C1 [Compound 11d]	-2.5%	-1%			
Cn1c2c(c3ccccc31)[C@@H](c1cccs1)[C@@H]1C=C[C@H]2C1 [Compound 11e]	-0.5%	-2.4%			
CC[C@@H]1c2c(n(C)c3ccccc23)[C@H]2C=C[C@@H]1C2 [Compound 11f]	-1.1%	-2.4%			
Cn1c2c(c3ccccc31)C(C)(C)[C@@H]1C=C[C@H]2C1 [Compound 11g]	-0.8%	-2.7%			
Cn1c2c(c3ccccc31)C1(CCC1)[C@@H]1C=C[C@H]2C1 [Compound 11h]	-2.2%	-3.3%			
Cn1c2c(c3ccccc31)C1(CCCC1)[C@@H]1C=C[C@H]2C1 [Compound 11i]	0%	-6%			
Cn1c2c(c3ccccc31)C1(CCCCC1)[C@@H]1C=C[C@H]2C1 [Compound 11j]	-0.3%	-3.3%			
Cn1c2c(c3ccccc31)C1(CCCCC1)[C@@H]1C=C[C@H]2CC1 [Compound 11k]	3.1%	-1.9%			
CC1=C(C)CC2(CCCCC2)c2c(n(C)c3ccccc23)C1 [Compound 11l]	-2%	-3.3%			
CC1=CCc2c(c3ccccc3n2C)C(c2ccccc2)C1 (stereo not shown) [Compound 11m]	-2.2%	-1%			
CC1C=CC(C)C(c2ccccc2)c2c1n(C)c1ccccc21 (stereo not shown) [Compound 11n]	10.3%	-3.5%			
CC1(C)c2c(n(Cc3ccccc3)c3ccccc23)[C@H]2C=C[C@@H]1C2 [Compound 11o]	-0.3%	-2.1%			
CC1(C)c2c([nH]c3ccccc23)C2C=CC1C2 (stereo not shown) [Compound 11p]					Primary SP hNCI (% Stim.) (hNCI-H716 [1]; 2 μM): −0.5%; Primary SP hNCI (% Stim.) (hNCI-H716 [1]; 20 μM): 23.3%
COc1ccc2[nH]c3c(c2c1)C(C)(C)C1C=CC3C1 (stereo not shown) [Compound 11q]					Primary SP hNCI (% Stim.) (hNCI-H716 [1]; 2 μM): 1.3%; Primary SP hNCI (% Stim.) (hNCI-H716 [1]; 20 μM): 5.9%
COC(=O)c1ccc2[nH]c3c(c2c1)C(C)(C)C1C=CC3C1 (stereo not shown) [Compound 11r]					Primary SP hNCI (% Stim.) (hNCI-H716 [1]; 2 μM): −1.1%; Primary SP hNCI (% Stim.) (hNCI-H716 [1]; 20 μM): 13.4%
CC1(C)c2c([nH]c3ccc(F)cc23)C2C=CC1C2 (stereo not shown) [Compound 11w]	1.4%	41.3%			EC50 (mSTC-1 [2]): 23.6 µM and 22.8 µM; EC50 (hNCI-H716 [1]): 22.4 µM and 30.3 µM
CC1(C)c2c([nH]c3ccc(O)cc23)C2C=CC1C2 (stereo not shown) [Compound 11x]	3.4%	-0.8%			EC50 (mSTC-1 [2]): > 40 µM; EC50 (hNCI-H716 [1]): > 40 µM

SMILES	activation at 2 µM (hNCI-H716 [1]; 2 μM)	activation at 20 µM (hNCI-H716 [1]; 20 μM)	activation at 2 µM (mSTC-1 [2])	activation at 20 µM (mSTC-1 [2])	also measured
CC1(C)c2c([nH]c3ccc(C(F)(F)F)cc23)C2C=CC1C2 (stereo not shown) [Compound 11y]	-0.4%	55.9%			EC50 (mSTC-1 [2]): 10.4 µM and 5.88 µM
Cc1ccc(C2CC(C)(C)c3c2[nH]c2ccc(C)cc32)cc1 (stereo not shown) [Compound 19d]	0%	0%	10.3%	53.6%	
c1ccc(C2CC3(CCCCC3)c3c2[nH]c2ccccc32)cc1 (stereo not shown) [Compound 19e]	0%	0%	78.4%	109%	
Cc1ccc(C2CC3(CCCCC3)c3c2[nH]c2ccc(C)cc32)cc1 (stereo not shown) [Compound 19g]	0%	0%	34.9%	124%	
Cc1ccc(C2CC(C)(C)c3c2[nH]c2ccccc32)cc1 (stereo not shown) [Compound 19h]	0%	0%	93.2%	107%	
CC(=O)Oc1ccc(C2CC3(CCCCC3)c3c2[nH]c2ccccc32)cc1 (stereo not shown) [Compound 19i]	0%	23.4%	13.5%	104%	EC50 (mSTC-1 [2]): > 40 µM; EC50 (hNCI-H716 [1]): > 40 µM
Cn1c2c(c3ccccc31)C1(CCCC1)CC2c1ccccc1 (stereo not shown) [Compound 19u]	-0.8%	-3.8%			
COc1ccc(C2CC3(CCCC3)c3c2n(C)c2ccccc32)cc1 (stereo not shown) [Compound 19v]	-2%	-2.4%			
Cc1ccc(C2CC3(CCCC3)c3c2n(C)c2ccccc32)cc1 (stereo not shown) [Compound 19w]	-0.8%	-1.9%			
Cn1c2c(c3ccccc31)C1(CCCC1)CC2c1ccc2ccccc2c1 (stereo not shown) [Compound 19x]	-3.1%	-3.3%			
CC1(C)C(=O)C[C@]23CCCC[C@]12Nc1ccccc13 [Compound 20]	-0.2%	-1.1%	-4.1%	8.2%	
O=C1C2CCC1[C@@]1(CCO)c3ccccc3N[C@@H]21 (stereo partly shown) [Compound 21]	4.3%	3.4%	-1%	-2.4%	
C[C@]12c3ccccc3N[C@H]1C1CCC2C1=O (stereo partly shown) [Compound 22]	-1.5%	-1.3%	-1.8%	7.4%	
CN1c2ccccc2[C@]2(C)C3CCC(C3=O)[C@H]12 (stereo partly shown) [Compound 23]	6.4%	-1.1%	6.9%	71.3%	EC50 (mSTC-1 [3]): > 40 µM; EC50 (mSTC-1 [2]): 6.18 µM; EC50 (hNCI-H716 [1]): > 40 µM; EC50 (hNCI-H716 [4]): > 40 µM
O=C1C2CCC1[C@@]1(CCO)c3ccccc3N(Cc3ccccc3)[C@@H]21 (stereo partly shown) [Compound 24]	1%	4.6%	-3.3%	47.9%	EC50 (mSTC-1 [3]): > 40 µM; EC50 (mSTC-1 [2]): 15.2 µM and 13.5 µM; EC50 (hNCI-H716 [1]): > 40 µM; EC50 (hNCI-H716 [4]): > 40 µM
CC1(C)C(=O)C[C@]23CCCC[C@]12N(Cc1ccccc1)c1ccccc13 [Compound 25]	0.6%	-1.1%	78.5%	51.1%	EC50 (mSTC-1 [3]): > 40 µM; EC50 (mSTC-1 [2]): 0.2 µM; EC50 (hNCI-H716 [1]): > 40 µM; EC50 (hNCI-H716 [4]): > 40 µM
COC(=O)[C@@H]1CC[C@H](O)[C@@]2(C)c3ccccc3N(C)[C@@H]12 [Compound 26]	1.4%	-1.3%	-2.4%	-3.1%	
O=C1OC2CCC1[C@]13CCN[C@]21Nc1ccccc13 (stereo partly shown) [Compound 27]	1%	0.4%	-5.1%	-3.9%	
O=C1OC2CCC1[C@]13CCO[C@]21Nc1ccccc13 (stereo partly shown) [Compound 28]	1.2%	4%	-2.4%	4.4%	
CC1(C)C(=O)C[C@@]2(C)c3ccccc3N(Cc3ccccc3)[C@@]12C [Compound 30]	3.1%	-0.2%	49.9%	49.9%	EC50 (mSTC-1 [3]): > 40 µM; EC50 (mSTC-1 [2]): 0.85 µM and 0.51 µM; EC50 (hNCI-H716 [1]): > 40 µM; EC50 (hNCI-H716 [4]): > 40 µM
